Results: patent US20240409536A1, “COMPOUNDS AND METHODS FOR MODULATING SPLICING” (REMIX THERAPEUTICS INC., priority 2021, published 2024)

Tests used:
HiBiT-tagged MYB protein = assay: HiBiT protein abundance assay, MYB (K562 HiBiT knock-in cells); format: cell-based, human; settings: 24 hours
Method: (§1) Compounds described herein were used to screen for effects on quantitative protein abundance using a HiBit assay system (Promega). Quantitative protein abundance was determined by measuring the protein levels of HiBit-tagged protein targets expressed in cell culture via luminescence using the Nano-Glo HiBiT Lytic Detection System, which uses a split complementation assay format to reconstitute NanoBiT enzyme to generate a luminescent signal. A protein abundance assay was developed such that endogenous protein targets could be modified with the HiBiT peptide tag and their abundance could be assessed after compound treatment. Briefly, K562 cell lines containing a HiBiT-modification were treated with various compounds described herein (e.g., compounds of Formulas (I), (II), or (III)). After treatment for 24 hours, the protein abundance of a specific target was determined by measuring luminescence.
(§2) • Promega Nano-Glo HiBiT Lytic Detection System (cat #N3030) • Corning 384-well TC-treated microplates (cat #3570) • Synthego Engineered Cells Knock-In Clones
(§3) Cells were maintained in IMDM with 10% FBS. Before the assay, cells were diluted with […] growth media (IMDM+1% FBS media) and were seeded in a 384-well plate at a density of 10000 cells/well (for each cell line listed in Table 6). Each compound was prepared as a 10-point 3-fold serial dilution in DMSO with the top dose at a final concentration of 10 μM in the well. Unmodified K562 cells were added at the previously specified density with DMSO to serve as an assay baseline and positive control (PC) and DMSO only with the respective modified cell lines was added to the negative control (NC) columns. Final DMSO concentration was kept at or below 0.25%. Treated cell plates were placed in an incubator at 37° C. with 5% CO2 for 24 hours. After 24 hours, 25 μL of Complete HiBit Lytic reagent was added to each well at room temperature (e.g. one plate requiring 10 mL Lytic Buffer, 100 μL LgBiT Protein, 200 μL Lytic Substrate), shaken for 5 minutes at 600 RPM, then left to sit for 10 minutes for signal to stabilize before reading on a Spark Cyto plate reader (Tecan) with a 500 ms measurement time.
(§4) To determine compound effects on protein abundance of each target in Table 6, the percent response for each respective cell line was calculated at each compound concentration as follows:
(§5) For the normalized response at each concentration, a four-parameter logistical regression was fit to the data and the response was interpolated at the 50% value to determine a concentration for protein abundance at 50% (IC50) the untreated control.

HiBiT-tagged HTT protein = assay: HiBiT protein abundance assay, HTT (K562 HiBiT knock-in cells); format: cell-based, human; settings: 24 hours
Method: as §1, §2, §3, §4, §5

Target C = assay: HiBiT protein abundance assay, Target C (K562 HiBiT knock-in cells); format: cell-based, human; settings: 24 hours
Method: as §2, §3, §4, §5

K562 cells = assay: Cell Titer Glo 2.0 cell viability assay in K562 cells; settings: 72 hours
HTT mRNA [1] = assay: Splicing RT-qPCR assay, HTT canonical (CJ) and alternative (AJ) junction mRNA; format: cell-based; settings: Homo sapiens, A673 or K562 cells, 24 hours
Method: (§6) Compounds described herein were used to modulate RNA transcript abundance in cells. The expression of a target mRNA was measured by detecting the formation of an exon-exon junction in the canonical transcript (CJ). A compound mediated exon-inclusion event was detected by observing an increase in formation of a new junction with an alternative exon (AJ). Real-time qPCR assays were used to detect these splicing switches and interrogate the potency of various compounds towards different target genes. A high-throughput real time quantitative PCR (RT-qPCR) assay was developed to measure these two isoforms of the mRNA (CJ and AJ) for exemplary genes, such as HTT, SMN2, and MYB, together with a control housekeeping gene, GAPDH or GUSB or PPIA, used for normalization. Briefly, the A673 or K562 cell line was treated with various compounds described herein (e.g., compounds of Formula (I), (I), or (III)). After treatment, the levels of the HTT, MYB, or SMN2 mRNA targets were determined from each sample of cell lysate by cDNA synthesis followed by qPCR.
(§7) • Cells-to-CT 1-step kit: ThermoFisher A25602, Cells-to-CT lysis reagent: ThermoFisher 4391851C, TaqMan™ Fast Virus 1-Step Master Mix: ThermoFisher 4444436 • GAPDH: VIC-PL, ThermoFisher 4326317E (Assay: Hs99999905_ml)—used for K562/suspension cell lines • GUSB: VIC-PL, ThermoFisher 4326320E (Assay: Hs99999908_ml)—used for K562/suspension cell lines • PPIA: VIC-PL, ThermoFisher 4326316E (Assay: Hs99999904_ml)—used for A673/adherent cell lines
(§8) The A673 cell line was cultured in DMEM with 10% FBS. Cells were diluted with full growth media and plated in a 96-well plate (15,000 cells in 100 ul media per well). The plate was incubated at 37° C. with 5% CO2 for 24 hours to allow cells to adhere. An 11-point 3-fold serial dilution of the compounds was made in DMSO then diluted in media in an intermediate plate. Compounds were transferred from the intermediate plate to the cell plate with the top dose at a final concentration of 10 uM in the well. Final DMSO concentration was kept at or below 0.25%. The cell plate was returned to the incubator at 37° C. with 5% CO2 for an additional 24 hours.
(§9) The K562 cell line was cultured in IMDM with 10% FBS. For K562, cells were diluted with full growth media and plated in either a 96-well plate (50,000 cells in 50 uL media per well) or a 384-well plate (8,000-40,000 cells in 45 uL media per well). An 11-point 3-fold serial dilution of the compounds were made in DMSO then diluted in media in an intermediate plate. Compound was transferred from the intermediate plate to the cell plate with the top dose at a final concentration of 10 uM in the well. Final DMSO concentration was kept at or below 0.25%. Final volume was 100 uL for 96-well plate and 50 uL for 384-well plate. The cell plate was then placed in an incubator at 37° C. with 5% CO2 for 24 hours.
(§10) The cells were then gently washed with 50 uL-100 uL cold PBS before proceeding to addition of lysis buffer. 30 uL-50 uL of room temperature lysis buffer with DNAse I (and optionally RNAsin) was added to each well. Cells were shaken/mixed thoroughly at room temperature for 5-10 minutes for lysis to take place and then 3 uL-5 uL of room temperature stop solution was added and wells were shaken/mixed again. After 2-5 minutes, the cell lysate plate was transferred to ice for RT-qPCR reaction setup. The lysates could also be frozen at −80° C. for later use.
(§11) In some cases, a direct lysis buffer was used. An appropriate volume of 3×lysis buffer (10 mM Tris, 150 mM NaCl, 1.5%-2.5% Igepal and 0.1-1 U/uL RNAsin, pH 7.4) was directly added to either K562 or A673 cells in media and mixed by pipetting 3 times. The plates were then incubated at room temperature with shaking/rocking for 20-50 minutes to allow for lysis to take place. After this time, the cell lysate plate was transferred to ice to set up for the RT-qPCR reactions. The lysates could also be frozen at −80° C. for later use. […]

MYB mRNA [2] = assay: Splicing RT-qPCR assay, MYB canonical (CJ) and alternative (AJ) junction mRNA; format: cell-based; settings: Homo sapiens, A673 or K562 cells, 24 hours
Method: as §6, §7, §8, §9, §10, §11

HTT mRNA [3] = assay: Gene panel canonical junction qPCR assay, HTT CJ mRNA decrease; format: cell-based, human; settings: Homo sapiens, canonical junction qPCR, read-out: HTT IC50 (decrease in CJ mRNA levels)
Outline: (§12)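 IC50 values describe loss of canonical-junction transcript, fitted by 4-parameter logistic to percent response derived from fixed ΔCt windows. Read-out: RT-qPCR on lysates of compound-treated K562 or A673 cells, probes overlapping the exon junction, ΔΔCt versus housekeeping gene and DMSO control.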

MYB mRNA [4] = assay: Gene panel canonical junction qPCR assay, MYB CJ mRNA decrease; format: cell-based, human; settings: Homo sapiens, canonical junction qPCR, read-out: MYB IC50 (decrease in CJ mRNA levels)
Outline: as §12

SMN2 mRNA = assay: Gene panel canonical junction qPCR assay, SMN2 CJ mRNA decrease; format: cell-based, human; settings: Homo sapiens, canonical junction qPCR, read-out: SMN2 IC50 (decrease in CJ mRNA levels)
Outline: as §12

Target C mRNA = assay: Gene panel canonical junction qPCR assay, Target C CJ mRNA decrease; format: cell-based; settings: Homo sapiens, canonical junction qPCR, read-out: Target C IC50 (decrease in CJ mRNA levels)
Outline: as §12

[5] = decrease in canonical junction mRNA
[6] = increase in alternative junction mRNA

Structure (SMILES) | IC50 (HiBiT-tagged MYB protein) [nM] | IC50 (HiBiT-tagged HTT protein) [nM] | IC50 (Target C) [nM] | IC50 (HTT mRNA [1]; [5]) [nM] | IC50 (MYB mRNA [2]; [5]) [nM] | IC50 (HTT mRNA [3]) [nM] | IC50 (MYB mRNA [4]) [nM] | IC50 (SMN2 mRNA) [nM] | IC50 (Target C mRNA) [nM] | Viability (K562 cells) | AC50 (HTT mRNA [1]; [6]) [nM] | AC50 (MYB mRNA [2]; [6]) [nM]
Cc1nc2c(F)cc(NC(=O)c3ccc(N4CCNCC4)c4ccnnc34)cc2o1 [Compound 117] | < 100 | 100 to 1000 | 1000 to 10000 |  |  |  |  |  |  | B (B represents 100-1000 nM) |  | 
Cc1cn2nc(NC(=O)c3ccc(N4CCNCC4)c4ccnnc34)nc2c(C)n1 [Compound 122] | 1000 to 10000 | 1000 to 10000 | 1000 to 10000 |  |  |  |  |  |  | C (C represents 1000-9999 nM) |  | 
Cc1cn2cc(NC(=O)c3ccc(N4CCNCC4)c4ccnnc34)cc(Cl)c2n1 [Compound 124] | < 100 | 1000 to 10000 | 1000 to 10000 |  |  |  |  |  |  | B (B represents 100-1000 nM) |  | 
Cc1cn2cc(NC(=O)c3ccc([C@H]4C[C@@H](C)N[C@@H](C)C4)c4nccnc34)cc(F)c2n1 [Compound 379] |  |  |  | 1000 to 10000 | 100 to 1000 | 1000 to 10000 | 100 to 1000 | < 100 | > 10000 | B (B represents 100-1000 nM) | 1000 to 10000 | 100 to 1000

Further lines, with some results ahead:

IC50 (HiBiT-tagged MYB protein) [nM] | IC50 (HiBiT-tagged HTT protein) [nM] | IC50 (Target C) [nM] | IC50 (HTT mRNA [1]; [5]) [nM] | IC50 (MYB mRNA [2]; [5]) [nM] | IC50 (HTT mRNA [3]) [nM] | IC50 (MYB mRNA [4]) [nM] | IC50 (SMN2 mRNA) [nM] | IC50 (Target C mRNA) [nM] | Structure (SMILES) | Viability (K562 cells) | AC50 (HTT mRNA [1]; [6]) [nM] | AC50 (MYB mRNA [2]; [6]) [nM]
< 100 | 100 to 1000 | 100 to 1000 |  |  |  |  |  |  | Cc1cn2cc(NC(=O)c3ccc(N4CCNCC4)c4ccnnc34)cc(F)c2n1 [Compound 101] | B (B represents 100-1000 nM) |  | 
< 100 | 100 to 1000 | 1000 to 10000 |  |  |  |  |  |  | Cc1cn2cc(NC(=O)c3ccc(C4CCNCC4)c4ccnnc34)cc(F)c2n1 [Compound 103] | A (A represents <100 nM) |  | 
< 100 | 100 to 1000 | 1000 to 10000 |  |  |  |  |  |  | Cc1cn2cc(NC(=O)c3ccc(N4CCNCC4)c4cncnc34)cc(F)c2n1 [Compound 112] | B (B represents 100-1000 nM) |  | 
